Source: patent US10632195B2, “Pharmaceutical device for electric-field assisted administration of Tapentadol and method of administering Tapentadol with same” (Gruenenthal GmbH, priority 2012, dated 2020)

Columns and labels:
[1] = preliminary clinical trials: serum concentration and pain treating effect (visual analog scale); assay type: in vivo, human
Source text: Low serum concentrations of Tapentadol suffice to show an effect in individuals that are relatively sensitive and higher serum concentrations of Tapentadol are needed to show an effect in persons that are relatively unsensitive.

[2] = combined electrophoretic and iontophoretic transdermal delivery from hydrogel formulation C in device according to FIG. 3 (examples 3a, 3b, 3c); assay type: in vitro ADME, mouse
Source text: The rate of combined iontophoretic and electrophoretic transdermal delivery of aTapentadol hydrochloride containing hydrogel formulation has been investigated in examples 3a, 3b and 3c.
(§1) The linearity of the method was verified by calibration with an aqueous solution of Tapentadol hydrochloride.
The hydrogel formulation C (as described in example 2a) has been placed in a combined electrophoretic and iontophoretic device according to FIG. 3. The following components were used for preparing the inventive electrophoretic and iontophoretic device according to FIG. 3:
silver electrodes as pair of electrodes consisting of an active electrode (1a) and a counter electrode (2a) (silver gauze, 1024 mesh/cm^2, 0.12 wire diameter, 99.9% Ag, 18 mm diameter and 14 mm diameter, respectively), an additional silver ring electrode as an auxiliary electrode (silver gauze, 1024 mesh/cm^2, 0.12 wire diameter, 99.9% Ag, 20 mm outer diameter and 16 mm inner diameter, respectively), a hydrogel formulation (comprising 2.5%-wt. Klucel® HF and 0.1%-wt. sodium chloride, having a pH value of 7.0) as additional reservoir (15) being in contact with the silver ring electrode, a foam ring as (9) (Alveolit TA 1001 005 White, 95 kg/m^3, 24 mm outer diameter, 20 mm inner diameter), hydrogel formulation C as drug reservoir (3), teflon ring as barrier material (10) (thickness 1 mm, outer diameter 16 mm, inner diameter 11 mm and, thickness 0.5 mm, outer diameter 20 mm, inner diameter 16 mm, respectively), silicone adhesive Bio PSA-7 4502 as adhesive layer (4a), which has been in contact with a removable protective layer prior to use (transparent PETP foil manufactured by 3M®, 74 μm, with one-side fluorination, 24 mm diameter), acrylate adhesive DuroTAK 387-2054 as a second adhesive layer (8), a PET foil as surface layer (7) (Loparex PET foil, 75 μm, 105 g/m^2, 24 mm diameter).
Three wires were soldered to the electrodes and connected to a conventional current source as electric power source (6a) (Voltakraft® laboratory power supply DIGI 35).
A transdermal delivery experiment across mouse skin has been performed. In the first electrophoretic phase, only the silver electrodes as pair of electrodes consisting of an active electrode (1a) and a counter electrode (2a) were connected to the current supply. After application of 2.5 hours a single pulse having a pulse length of 60 s at a constant voltage of 3 V has been applied. After application of said pulse both electrodes were disconnected from the voltage generator. In the second iontophoretic phase following the electrophoretic phase, the counter electrode (2a) of the electrophoretically used pair of silver electrodes (1a and 2a) is used as an active electrode (1b) and the additional silver ring electrode is used a counter electrode (2b). A single pulse having a pulse length of 60 s at a constant voltage of 3 V has been applied in the iontophoretic phase.
The hydrogel formulation C (as described in example 2a) has been placed in a combined electrophoretic and iontophoretic device according to FIG. 3. The same components were used for preparing the inventive combined electrophoretic and iontophoretic device as described in example 3a.
Three transdermal delivery experiments (E-1, E2 and E3 as example 3b) to mouse skin have been performed in order to directly assess differences between a solely electrophoretic transdermal delivery and a combined electrophoretic and iontophoretic transdermal delivery as indicated in FIG. 13 and FIG. 14: […]

[3] = electrophoretic transdermal delivery from hydrogel formulations in device according to FIG. 1 (examples 2a, 2b, 2c; passive comparative example 2a); assay type: in vitro ADME, mouse; conditions: for total amount of Tapentadol permeated, electrophoretic delivery: after 24 hours, 60 s pulses after 1.5 and 16.5 hours
Source text: The rate of electrophoretic transdermal delivery of three different exemplary Tapentadol hydrochloride containing hydrogel formulations A, B and C has been investigated in example 2a, 2b and 2c. Further, the rate of passive transdermal delivery of a corresponding Tapentadol hydrochloride containing hydrogel formulation has been investigated in a comparative experiment 2a.
as §1
The hydrogel formulation B has been placed in an electrophoretic transdermal delivery system according to FIG. 1. The following components were used for preparing the electrophoretic device according to FIG. 1:
silver electrodes as pair of electrodes consisting of an active electrode (1a) and a counter electrode (2a) (silver gauze, 1024 mesh/cm^2, 0.12 wire diameter, 99.9% Ag, 18 mm diameter), a foam ring (9) (Alveolit TA 1001 005 White, 95 kg/m^3, 22 mm outer diameter, 16 mm inner diameter), hydrogel formulation B as drug reservoir (3), a teflon ring as barrier material (10) (thickness 1 mm, outer diameter 16 mm, inner diameter 11 mm), silicone adhesive Bio PSA-7 4502 as adhesive layer (4a), which has been in contact with a removable protective layer prior to use (transparent PETP foil manufactured by 3M®, 74 μm, with one-side fluorination, 22 mm diameter), acrylate adhesive DuroTAK 387-2054 as a second adhesive layer (8), a PET foil as surface layer (7) (Loparex PET foil, 75 μm, 105 g/m^2, 22 mm diameter).
Two wires were soldered to the electrodes and connected to a conventional current source as electric power source (6a) (Voltakraft® laboratory power supply DIGI 35).
Transdermal delivery experiments across mouse skin have been performed after two short current pulses (2 V) have been applied for 2 s after 1.5 hour and for 2 s after 16.5 hours.
For comparison, the hydrogel formulation B or A has been placed in an electrophoretic transdermal delivery system according to FIG. 1 and passive transdermal delivery experiments to mouse skin have been performed, i.e. no electric current has been applied to these systems (passive control experiments). This experiment has been performed twice for formulation B (compB-1 and compB-2) and once in case of formulation A (compA) (comparative example 2a) as indicated in FIG. 4 and FIG. 5.
The hydrogel formulation B has been placed in an electrophoretic transdermal delivery system according to FIG. 1 comprising the same components as used for example 2a and comparative example 2a.
Transdermal delivery experiments across mouse skin have been performed after two current pulses have been applied. […]

[4] = HPLC purity of Tapentadol in exhausted hydrogel after electric-field-assisted administration (example 4); assay type: physicochemical
[5] = exhausted hydrogel of F-3 of example 3c, HPLC

CC[C@@H](c1cccc(O)c1)[C@@H](C)CN(C)C [Tapentadol, (−)-(1R,2R)-3-(3-dimethyl-amino-1-ethyl-2-methyl-propyl)-phenol]
visual analog scale (VAS) in a population mean ([1]; at serum concentration of about 5 ng·ml-1): approximately −2 mm
visual analog scale (VAS) in a population mean ([1]; at serum concentration of about 300 ng·ml-1): approximately −15 mm
fall-off of the drug flux ([2]; E-2, after 18 hours compared to the maximum at about 6 hours): about 50%
total amount of Tapentadol permeated, combined electrophoretic and iontophoretic delivery ([2]; after 24 hours, D-1: formulation C, 60 s 3 V electrophoretic pulse after 2.5 hours then 60 s 3 V iontophoretic pulse, mouse skin probably injured): 430 μg/cm^2
total amount of Tapentadol permeated, electrophoretic delivery ([2]; after 24 hours, E-2: formulation C, four 60 s 3 V electrophoretic pulses (0, 15.75, 18, 20.75 h)): more than 700 μg/cm^2
total amount of Tapentadol permeated, combined electrophoretic and iontophoretic delivery ([2]; after 24 hours, E-3: formulation C, four 60 s 3 V electrophoretic pulses (0, 15.75, 18, 20.75 h) each followed by 9 V iontophoretic pulse): more than 800 μg/cm^2
total amount of Tapentadol permeated, combined electrophoretic and iontophoretic delivery ([2]; after 24 hours, F-3: formulation C, four 60 s 4 V electrophoretic pulses (0, 2.5, 5.5, 21.5 h) each followed by 9 V iontophoretic pulse): about 1500 μg/cm^2
total amount of Tapentadol permeated, electrophoretic delivery ([3]; B-5: formulation B, 2 V): more than 300 μg/cm^2
total amount of Tapentadol permeated, electrophoretic delivery ([3]; C-3: formulation C, 5 V): 670 μg/cm^2
increase of cumulative skin permeation by electrophoresis versus passive delivery ([3]; hydrogel formulation B, example 2a (2 V pulses of 2 s after 1.5 and 16.5 hours) vs comparative example 2a, from FIG. 4): 5-10 fold
Tapentadol remaining within the transdermal delivery system ([3]; over 24 hours of administration, examples 2a, 2b and 2c): about 90 wt.-%
electrically induced degradation of Tapentadol ([4]; during electric-field administration of the device): does not induce a significant degradation
Tapentadol content [4, 5]: 95.3%
sum of impurities [4, 5]: 4.7%
